Source: patent US7432283B2, “Heterocyclic GABAA subtype selective receptor modulators” (Roche Palo Alto LLC, priority 2004, dated 2008)
Structures can show the parent of a compound that is named as a salt.

Compound	melting point
Cc1cc(C)c(N2CCCc3c2nn(C)c3Br)c(Cl)c1 [Compound 1-1, 3-Bromo-7-(2-chloro-4,6-dimethylphenyl)-2-methyl-4,5,6,7-tetrahydro-2H-pyrazolo[3,4-b]pyridine]	106 to 107 °C
Cc1cc(C)c(N2CCCc3c2nn(C)c3Br)c(C)c1 [Compound 1-3, 3-Bromo-2-methyl-7-(2,4,6-trimethyl-phenyl)-4,5,6,7-tetrahydro-2H-pyrazolo[3,4-b]pyridine]	94.6 to 97.9 °C
Cn1nc2c(c1Br)CCCN2c1c(Cl)cc(Cl)cc1Cl [Compound 1-6, 3-Bromo-2-methyl-7-(2,4,6-trichloro-phenyl)-4,5,6,7-tetrahydro-2H-pyrazolo[3,4-b]pyridine]	100 to 101 °C
COc1ccc(N2CCCc3c2nn(C)c3Br)c(C)c1 [Compound 1-7, 3-Bromo-2-methyl-7-(4-methoxy 2-methyl-phenyl)-4,5,6,7-tetrahydro-2H-pyrazolo[3,4-b]pyridine]	101.7 to 104.1 °C
Cn1nc2c(c1Br)CCCN2c1ccc(Cl)cc1 [Compound 1-8, 3-Bromo-2-methyl-7-(4-chloro-phenyl)-4,5,6,7-tetrahydro-2H-pyrazolo[3,4-b]pyridine]	113.8 to 114.9 °C
Cn1nc2c(c1Cl)CCCN2c1ccc(Cl)cc1 [Compound 1-10, 3-chloro-7-(4-chloro-phenyl)-2-methyl-4,5,6,7-tetrahydro-2H-pyrazolo [3,4-b]pyridine]	96.5 to 97.5 °C
Cc1cc(C)c(N2CCCc3c2nn(C)c3Cl)c(C)c1 [Compound 1-11, 3-chloro-7-(2,4,6-trimethyl-phenyl)-2-methyl-4,5,6,7-tetrahydro-2H-pyrazolo[3,4-b]pyridine]	83 to 86 °C
Cc1cc(C)c(N2CCCc3c2[nH]n(C)c3=O)c(Cl)c1 [Compound 1-15, 7-(2-Chloro-4,6-dimethyl-phenyl)-2-methyl-1,2,4,5,6,7-hexahydro-pyrazolo[3,4-b]pyridin-3-one]	103 to 109 °C
Cn1[nH]c2c(c1=O)CCCN2c1ccc(Cl)cc1Cl [Compound 1-16, 7-(2,4-dichloro-phenyl)-2-methyl-1,2,4,5,6,7-hexahydro-pyrazolo[3,4-b]pyridin-3-one]	98 to 100.5 °C
Cn1[nH]c2c(c1=O)CCCN2c1ccc(Cl)cc1 [Compound 1-17, 7-(4-chloro-phenyl)-2-methyl-1,2,4,5,6,7-hexahydro-pyrazolo[3,4-b]pyridin-3-one]	219.5 to 221.6 °C
CCCC(O)(CCC)c1c2c(nn1C)N(c1c(C)cc(C)cc1Cl)CCC2 [Compound 2-1, 4-[7-(2-Chloro-4,6-dimethylphenyl)-2-methyl-4,5,6,7-tetrahydro-2H-pyrazolo[3,4-b]pyridin-3-yl]heptan-4-ol]	129 to 130 °C
CCCC(O)(CCC)c1c2c(nn1C)N(c1c(C)cc(C)cc1C)CCC2 [Compound 2-2, 4-[2-Methyl-7-(2,4,6-trimethylphenyl)-4,5,6,7-tetrahydro-2H-pyrazolo[3,4-b]pyridin-3-yl] heptan-4-ol]	126 to 127.9 °C
CCCC(O)(c1cccs1)c1c2c(nn1C)N(c1c(C)cc(C)cc1C)CCC2 (stereo not shown) [Compound 2-3, 1-[2-Methyl-7-(2,4,6-trimethylphenyl)-4,5,6,7-tetrahydro-2H-pyrazolo[3,4-b]pyridin-3-yl]-1-thiophen-2-ylbutan-1-ol]	175.9 to 178.4 °C
CCCC(O)(CCC)c1c2c(nn1C)N(c1c(C)cc(C)cc1C)CCCC2 [Compound 2-4, 4-[2-Methyl-8-(2,4,6-trimethylphenyl)-2,4,5,6,7,8-hexahydro-1,2,8-triazaazulen-3-yl]heptan-4-ol]	87 to 91.1 °C
CCCC(O)(CCC)c1c2c(nn1C)N(c1ccc(Cl)cc1Cl)CCC2 [Compound 2-5, 4-[7-(2,4-Dichlorophenyl)-2-methyl-4,5,6,7-tetrahydro-2H-pyrazolo [3,4-b]pyridin-3-yl]heptan-4-ol]	121.4 to 122.6 °C
COCC(O)(COC)c1c2c(nn1C)N(c1c(C)cc(C)cc1C)CCC2 [Compound 2-6, 1,3-Dimethoxy-2-[2-methyl-7-(2,4,6-trimethylphenyl)-4,5,6,7-tetrahydro-2H-pyrazolo[3,4-b]pyridin-3-yl]propan-2-ol]	120.3 to 121.8 °C
COCCC(O)(COC)c1c2c(nn1C)N(c1c(C)cc(C)cc1C)CCC2 (stereo not shown) [Compound 2-7, 1,4-Dimethoxy-2-[2-methyl-7-(2,4,6-trimethylphenyl)-4,5,6,7-tetrahydro-2H-pyrazolo[3,4-b]pyridin-3-yl]butan-2-ol]	107.9 to 110.9 °C
CCCC(O)(c1nccs1)c1c2c(nn1C)N(c1c(C)cc(C)cc1C)CCC2 (stereo not shown) [Compound 2-8, 1-[2-Methyl-7-(2,4,6-trimethylphenyl)-4,5,6,7-tetrahydro-2H-pyrazolo[3,4-b]pyridin-3-yl]-1-thiazol-2-ylbutan-1-ol]	160.1 to 165.6 °C
Cc1cc(C)c(N2CCCc3c2nn(C)c3C(O)c2ccco2)c(C)c1 (stereo not shown) [Compound 2-9, Furan-2-yl[2-methyl-7-(2,4,6-trimethyl-phenyl)-4,5,6,7-tetrahydro-2H-pyrazolo[3,4-b]pyridin-3-yl]methanol]	163.1 to 174.4 °C

Results, then the compound that gave them:

melting point	Compound
236.4 to 241 °C	Cc1cc(C)c(N2CCCc3c2nn(C)c3CN2CCc3ccccc3C2)c(C)c1 (as salt: hydrochloride) [Compound 7-5, 2-[2-Methyl-7-(2,4,6-trimethyl-phenyl)-4,5,6,7-tetrahydro-2H-pyrazolo[3,4-b]pyridin-3-ylmethyl]-1,2,3,4-tetetrahydroisoquinolinedihydrochloride]
179.4 to 180.9 °C	CCC(O)c1c2c(nn1C)N(c1c(C)cc(C)cc1C)CCC2 (stereo not shown) [Compound 2-10, 1-[2-Methyl-7-(2,4,6-trimethylphenyl)-4,5,6,7-tetrahydro-2H-pyrazolo[3,4-b]pyridin-3-yl]propan-1-ol]
94.9 to 100.9 °C	CCCC(O)(c1nccn1CC)c1c2c(nn1C)N(c1c(C)cc(C)cc1C)CCC2 (stereo not shown) [Compound 2-11, 1-(1-Ethyl-1H-imidazol-2-yl)-1-[2-methyl-7-(2,4,6-trimethylphenyl)-4,5,6,7-tetrahydro-2H-pyrazolo[3,4-b]pyridin-3-yl]butan-1-ol]
193 to 195.1 °C	Cc1cc(C)c(N2CCCc3c2nn(C)c3C2(O)CCOCC2)c(C)c1 [Compound 2-12, 4-[2-Methyl-7-(2,4,6-trimethylphenyl)-4,5,6,7-tetrahydro-2H-pyrazolo[3,4-b]pyridin-3-yl]tetrahydropyran-4-ol]
97 to 98 °C	Cc1cc(C)c(N2CCCc3cn(C)nc32)c(Cl)c1 [Compound 2-13, 7-(2-Chloro-4,6-dimethylphenyl)-2-methyl-4,5,6,7-tetrahydro-2H-pyrazolo[3,4-b]pyridine]
56.7 to 64 °C	CC(O)c1c2c(nn1C)N(c1ccc(Cl)cc1Cl)CCC2 (stereo not shown) [Compound 2-14, 1-[7-(2,4-Dichloro-phenyl)-2-methyl-4,5,6,7-tetrahydro-2H-pyrazolo[3,4-b]pyridin-3-yl]-ethanol]
178 to 179.6 °C	Cc1cc(C)c(N2CCCc3c2nn(C)c3C(C)O)c(C)c1 (stereo not shown) [Compound 2-15, 1-[7-(2,4,6-trimethyl-phenyl)-2-methyl-4,5,6,7-tetrahydro-2H-pyrazolo[3,4-b]pyridin-3-yl]-ethanol]
158.9 to 161.6 °C	Cc1cc(C)c(N2CCCc3c2nn(C)c3C(C)(C)O)c(C)c1 [Compound 2-16, 2-[7-(2,4,6-trimethyl-phenyl)-2-methyl-4,5,6,7-tetrahydro-2H-pyrazolo[3,4-b]pyridin-3-yl]-propan-2-ol]
90.3 to 91.7 °C	CSc1c2c(nn1C)N(c1c(C)cc(C)cc1C)CCC2 [Compound 2-20, 2-Methyl-3-methylsulfanyl-7-(2,4,6-trimethyl-phenyl)-4,5,6,7-tetrahydro-2H-pyrazolo[3,4-b]pyridine]
181.6 to 183 °C	Cc1cc(C)c(N2CCCc3c2nn(C)c3S(C)(=O)=O)c(C)c1 [Compound 2-21, 3-Methanesulfonyl-2-methyl-7-(2,4,6-trimethyl-phenyl)-4,5,6,7-tetrahydro-2H-pyrazolo[3,4-b]pyridine]
128.5 to 136.6 °C	Cc1cc(C)c(N2CCCc3c2nn(C)c3C#N)c(C)c1 [Compound 2-22, 2-Methyl-7-(2,4,6-trimethyl-phenyl)-4,5,6,7-tetrahydro-2H-pyrazolo[3,4-b] pyridine-3-carbonitrile]
120.5 to 123.5 °C	Cc1cc(C)c(N2CCCc3c2nn(C)c3C=O)c(C)c1 [Compound 2-24, 2-Methyl-7-(2,4,6-trimethyl-phenyl)-4,5,6,7-tetrahydro-2H-pyrazolo[3,4-b] pyridine-3-carbaldehyde]
86.7 to 88.2 °C	CC/C=C(\CCC)c1c2c(nn1C)N(c1c(C)cc(C)cc1Cl)CCC2 [Compound 3-1, 7-(2-Chloro-4,6-dimethylphenyl)-2-methyl-3-(1-propylbut-1-enyl)-4,5,6,7-tetrahydro-2H-pyrazolo[3,4-b]pyridine]
101.6 to 102.6 °C	CC/C=C(\CCC)c1c2c(nn1C)N(c1c(C)cc(C)cc1C)CCC2 [Compound 3-2, 2-Methyl-3-(1-propylbut-1-enyl)-7-(2,4,6-trimethylphenyl)-4,5,6,7-tetrahydro-2H-pyrazolo[3,4-b]pyridine]
101.9 to 103.9 °C	CC/C=C(\CCC)c1c2c(nn1C)N(c1c(C)cc(C)cc1C)CCCC2 [Compound 3-4, 2-Methyl-3-(1-propylbut-1-enyl)-8-(2,4,6-trimethylphenyl)-2,4,5,6,7,8-hexahydro-1,2,8-triazaazulene]
99.6 to 100.6 °C	C=Cc1c2c(nn1C)N(c1ccc(Cl)cc1Cl)CCC2 [Compound 3-7, 7-(2,4-Dichloro-phenyl)-2-methyl-3-vinyl-4,5,6,7-tetrahydro-2H-pyrazolo[3,4-b]pyridine]
64.4 to 67.6 °C	C=Cc1c2c(nn1C)N(c1c(C)cc(C)cc1C)CCC2 [Compound 3-8, 2-methyl-7-(2,4,6-trimethyl-phenyl)-3-vinyl-4,5,6,7-tetrahydro-2H-pyrazolo[3,4-b]pyridine]
91.5 to 92 °C	CCCC(CCC)c1c2c(nn1C)N(c1c(C)cc(C)cc1C)CCC2 [Compound 4-2, 2-Methyl-3-(1-propylbutyl)-7-(2,4,6-trimethylphenyl)-4,5,6,7-tetrahydro-2H-pyrazolo[3,4-b]pyridine]
